Series [1] can be described thus: Activity for HIV-2 CBL-20.
Another series has as its system HIV-2 CBL-20. The experiment in a line: Activity for HIV-2 CBL-20.
The next series has as its system HIV-2 ROD. The experiment in a line: Activity for HIV-2 ROD.
Series [2] deals with HIV-1IIIB. The experiment in a line: Anti-HIV activity in H9 cells. It counts as cell-based. The conditions noted are these: H9 cells; for TI: CC50/EC50; for EC50: Human immunodeficiency virus 1, HIV-1IIIB, read-out: EC50.
Description: (§1) The anti-HIV activity was determined by the “Guiding Principles of Anti HIV Drug Unclinical Pharmacodynamics” of SFDA which is tested by technology standard assay according to International Universal Standards and Methods. Where in CC50, EC50 were measured twice and took the average.
Series [3] is described as follows: Cytotoxicity (CC50) in H9 cells. The series is classed as cell-based, human. The settings on record: human, H9 cells; read-out: CC50.
Description: as §1
The test system of series [4] is HIV-1IIIB. The experiment in a line: Anti-HIV activity in C8166 cells. The series is classed as cell-based. The settings on record: C8166 cells; for TI: CC50/EC50; for EC50: Human immunodeficiency virus 1, HIV-1IIIB, read-out: EC50.
Description: as §1
Series [5] is described as follows: Cytotoxicity (CC50) in C8166 cells. It counts as cell-based. The conditions noted are these: human.
Description: as §1
Series [6] can be described thus: Solubility in aqueous solution. It counts as physicochemical. The settings on record: simulated gastric fluid; in aqueous solution (pH=2). The text has this: Solubility is an important parameter of druggability. […] They are with good solubility and can be formulated into an oral formulation. The prodrugs can be hydrolyzed into 46 which is with good fat-solubility and TI as well as distribution.

Values after ≈ are worked out from the molar mass of the structure shown.

The term EC50 denotes the concentration giving half of the maximal effect. Turning to `COc1ccccc1NC(=O)c1c(N)cccc1Sc1ccc([N+](=O)[O-])cc1` [Compound 25, 2-amino-N-(2-methoxyphenyl)-6-(4-nitrophenylthi-o)benzamide], the CC50 worked out at 164 µg/mL (≈ 414 µM) in series [1], 185 µg/mL (≈ 467 µM) in “Activity for HIV-2 ROD”, 153 µg/mL (≈ 387 µM) in series [3] and 65.4 µg/mL (≈ 165 µM) in series [5]. Moreover, the TI with HIV-2 CBL-20 (HIV-2 CBL-20) is 199.72; in the series on HIV-2 ROD (HIV-2 ROD), 312.90; in the series on HIV-1IIIB [2] it was 206.68; with HIV-1IIIB [4] it was 310.02. Also, the EC50 with HIV-2 CBL-20 (Human immunodeficiency virus 2) was 0.82 µg/mL (≈ 2.07 µM); with HIV-2 ROD (Human immunodeficiency virus 2), 0.59 µg/mL (≈ 1.49 µM); with HIV-1IIIB [2], 0.74 µg/mL (≈ 1.87 µM); with HIV-1IIIB [4], 0.21 µg/mL (≈ 0.531 µM).
For orientation: solubility means the concentration that dissolves in the medium under given conditions. A low value points to a poorly soluble substance. In series [6], `COc1ccccc1NC(=O)c1c(NC(=O)CN)cccc1Sc1ccc([N+](=O)[O-])cc1.Cl` [Compound 66, 2-(2-aminoacetamido)-N-(2-methoxyphenyl)-6-(4-nitrophenylthio)benzamide hydrochloride] displayed a solubility of 1290 µg/mL. Further, the TI is given as 451.69 in the series on HIV-1IIIB [2] and 97.01 with HIV-1IIIB [4]. The EC50 in the series on HIV-1IIIB [2] stood at 0.16 µg/mL; with HIV-1IIIB [4], 0.81 µg/mL. Also, the values for the CC50 in series [3] and in [5] were 72.3 µg/mL and 78.3 µg/mL, respectively.
As for `COc1ccccc1NC(=O)c1c(NC(=O)C(N)CCCCN)cccc1Sc1ccc([N+](=O)[O-])cc1.Cl` (stereo not shown) [Compound 68, 2-(2,6-diaminohexanamido)-N-(2-methoxyphenyl)-6-((4-nitrophenyl)thio)benzamide hydrochloride], the solubility in series [6] was 2850 µg/mL. Moreover, the CC50 was determined as 90.1 µg/mL in series [3] and 116 µg/mL in series [5].
Turning to `COc1ccccc1NC(=O)c1c(NCCN)cccc1S(=O)(=O)c1ccc([N+](=O)[O-])cc1` [Compound 79, 2-((2-aminoethyl)amino)-N-(2-methoxyphenyl)-6-((4-nitrophenyl)sulfonyl)benzamide], the TI in the series with HIV-1IIIB [2] turned out to be 0.99; in the series with HIV-1IIIB [4] it was 0.97. For the same compound, the EC50 with HIV-1IIIB [2] was 101 µg/mL (≈ 214 µM); with HIV-1IIIB [4], 93.5 µg/mL (≈ 199 µM). The CC50 amounted to 99.5 µg/mL (≈ 211 µM) in [3] and 90.9 µg/mL (≈ 193 µM) in [5].
With `COc1ccccc1NC(=O)c1c(NCCO)cccc1Sc1ccc([N+](=O)[O-])cc1` [Compound 80, 2-((2-hydroxyethyl)amino)-N-(2-methoxyphenyl)-6-((4-nitrophenyl)thio)benzamide], the TI in the series on HIV-1IIIB [2] is recorded as 6.08; in the series on HIV-1IIIB [4], 4.81. The EC50 in the series on HIV-1IIIB [2] is 19.1 µg/mL (≈ 43.6 µM); in the series with HIV-1IIIB [4], 19.4 µg/mL (≈ 44.2 µM). The CC50 in series [3] stood at 116 µg/mL (≈ 265 µM); in series [5], 93.5 µg/mL (≈ 213 µM).
Turning to `COc1ccccc1NC(=O)c1c(NCCO)cccc1S(=O)(=O)c1ccc([N+](=O)[O-])cc1` [Compound 81, 2-((2-hydroxyethyl)amino)-N-(2-methoxyphenyl)-6-((4-nitrophenyl)sulfonyl)benzamide], the TI in the series on HIV-1IIIB [2] is 0.71; with HIV-1IIIB [4], 1.15. Besides, the concentration for a half-maximal effect (EC50) in the series with HIV-1IIIB [2] is 102 µg/mL (≈ 216 µM); with HIV-1IIIB [4], 89.1 µg/mL (≈ 189 µM). Besides, the figures for the CC50 in series [3] and in series [5] were 72.7 µg/mL (≈ 154 µM) and 102 µg/mL (≈ 217 µM), respectively.

The record behind these values is patent publication US9402819B2, “Anti-HIV compound and preparation method and use thereof” (Sichuan University, priority 2012, dated 2016).
